Common to all, as to format: biochemical
One test addresses SRC (Homo sapiens, UniProt P12931). In words: Inhibition of a panel of kinases, in vitro HotSpot kinase assay: SRC. How it is done: (§1) The degree of inhibition of a panel of kinases is determined using the in vitro HotSpot kinase assay (purified enzymes, ^33P-ATP, an appropriate substrate and 1 μM ATP).
The target in the next test is T1, JAK3 (Homo sapiens, UniProt P52333).
T1 sequence (P52333 1-1124): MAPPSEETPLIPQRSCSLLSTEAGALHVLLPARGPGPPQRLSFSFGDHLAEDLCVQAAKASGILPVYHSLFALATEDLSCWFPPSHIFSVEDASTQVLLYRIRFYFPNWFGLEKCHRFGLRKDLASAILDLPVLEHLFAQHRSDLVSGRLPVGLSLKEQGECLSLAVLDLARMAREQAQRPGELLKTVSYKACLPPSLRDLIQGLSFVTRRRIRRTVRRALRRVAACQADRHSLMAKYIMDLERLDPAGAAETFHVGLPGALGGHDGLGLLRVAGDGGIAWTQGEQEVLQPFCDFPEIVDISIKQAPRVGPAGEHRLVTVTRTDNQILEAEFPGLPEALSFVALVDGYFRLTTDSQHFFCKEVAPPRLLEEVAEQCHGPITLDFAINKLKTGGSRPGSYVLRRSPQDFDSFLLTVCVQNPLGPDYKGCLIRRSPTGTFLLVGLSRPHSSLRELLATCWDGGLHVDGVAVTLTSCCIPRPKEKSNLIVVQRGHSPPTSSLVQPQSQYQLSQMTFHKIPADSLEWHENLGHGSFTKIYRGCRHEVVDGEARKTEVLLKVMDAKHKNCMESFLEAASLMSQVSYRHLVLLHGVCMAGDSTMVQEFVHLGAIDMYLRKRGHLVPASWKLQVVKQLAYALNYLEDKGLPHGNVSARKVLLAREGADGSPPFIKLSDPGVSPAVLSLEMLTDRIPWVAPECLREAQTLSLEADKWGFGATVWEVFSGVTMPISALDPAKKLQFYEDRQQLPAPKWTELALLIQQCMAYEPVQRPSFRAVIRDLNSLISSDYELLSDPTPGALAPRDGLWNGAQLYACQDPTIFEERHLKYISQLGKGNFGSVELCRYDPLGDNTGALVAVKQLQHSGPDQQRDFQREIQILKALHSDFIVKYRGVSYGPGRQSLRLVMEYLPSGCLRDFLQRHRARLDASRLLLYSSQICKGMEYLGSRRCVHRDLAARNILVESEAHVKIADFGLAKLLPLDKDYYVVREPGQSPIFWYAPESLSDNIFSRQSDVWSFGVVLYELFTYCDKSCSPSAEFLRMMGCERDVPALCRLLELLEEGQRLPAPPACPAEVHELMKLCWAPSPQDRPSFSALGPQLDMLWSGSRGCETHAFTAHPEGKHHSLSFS
In words: Inhibition of a panel of kinases, in vitro HotSpot kinase assay: JAK3. The settings on record: read-out: IC50 JAK3.

In another test the target is EGFR (Homo sapiens, UniProt P00533). In words: Inhibition of a panel of kinases, in vitro HotSpot kinase assay: EGFR. How it is done: as §1
Chain of EGFR (P00533 25-1210): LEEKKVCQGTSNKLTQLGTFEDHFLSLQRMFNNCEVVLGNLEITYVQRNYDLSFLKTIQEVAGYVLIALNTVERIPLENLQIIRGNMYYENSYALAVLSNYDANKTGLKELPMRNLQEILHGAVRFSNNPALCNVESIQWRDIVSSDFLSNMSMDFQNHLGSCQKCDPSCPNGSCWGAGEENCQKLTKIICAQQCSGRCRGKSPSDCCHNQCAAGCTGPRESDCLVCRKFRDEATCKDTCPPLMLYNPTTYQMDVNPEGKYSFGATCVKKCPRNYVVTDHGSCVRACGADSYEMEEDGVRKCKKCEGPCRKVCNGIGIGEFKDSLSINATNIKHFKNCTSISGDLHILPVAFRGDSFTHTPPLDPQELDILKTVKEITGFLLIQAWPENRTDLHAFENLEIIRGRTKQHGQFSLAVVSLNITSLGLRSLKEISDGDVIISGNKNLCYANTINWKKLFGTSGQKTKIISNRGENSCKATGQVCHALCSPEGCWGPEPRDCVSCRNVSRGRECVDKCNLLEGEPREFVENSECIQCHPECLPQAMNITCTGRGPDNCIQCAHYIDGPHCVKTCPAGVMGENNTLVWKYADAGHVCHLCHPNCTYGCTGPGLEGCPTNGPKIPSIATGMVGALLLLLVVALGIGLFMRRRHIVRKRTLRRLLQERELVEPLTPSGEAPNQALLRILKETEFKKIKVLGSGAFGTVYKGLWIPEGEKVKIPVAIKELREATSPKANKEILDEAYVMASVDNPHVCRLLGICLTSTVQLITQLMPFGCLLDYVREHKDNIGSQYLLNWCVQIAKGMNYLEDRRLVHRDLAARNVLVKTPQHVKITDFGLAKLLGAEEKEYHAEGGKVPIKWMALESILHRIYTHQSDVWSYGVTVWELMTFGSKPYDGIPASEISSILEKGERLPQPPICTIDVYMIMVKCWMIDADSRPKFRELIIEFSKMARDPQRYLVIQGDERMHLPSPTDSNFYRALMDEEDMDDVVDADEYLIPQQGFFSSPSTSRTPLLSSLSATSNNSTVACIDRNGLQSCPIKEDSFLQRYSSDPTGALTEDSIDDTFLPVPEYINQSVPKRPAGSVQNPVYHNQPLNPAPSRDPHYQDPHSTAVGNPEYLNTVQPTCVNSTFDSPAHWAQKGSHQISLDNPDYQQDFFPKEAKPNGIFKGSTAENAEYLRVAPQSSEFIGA
A further test deals with LCK (Homo sapiens, UniProt P06239). In words: Inhibition of a panel of kinases, in vitro HotSpot kinase assay: LCK. The settings on record: read-out: IC50 LCK.
Chain of LCK (P06239 whole entry): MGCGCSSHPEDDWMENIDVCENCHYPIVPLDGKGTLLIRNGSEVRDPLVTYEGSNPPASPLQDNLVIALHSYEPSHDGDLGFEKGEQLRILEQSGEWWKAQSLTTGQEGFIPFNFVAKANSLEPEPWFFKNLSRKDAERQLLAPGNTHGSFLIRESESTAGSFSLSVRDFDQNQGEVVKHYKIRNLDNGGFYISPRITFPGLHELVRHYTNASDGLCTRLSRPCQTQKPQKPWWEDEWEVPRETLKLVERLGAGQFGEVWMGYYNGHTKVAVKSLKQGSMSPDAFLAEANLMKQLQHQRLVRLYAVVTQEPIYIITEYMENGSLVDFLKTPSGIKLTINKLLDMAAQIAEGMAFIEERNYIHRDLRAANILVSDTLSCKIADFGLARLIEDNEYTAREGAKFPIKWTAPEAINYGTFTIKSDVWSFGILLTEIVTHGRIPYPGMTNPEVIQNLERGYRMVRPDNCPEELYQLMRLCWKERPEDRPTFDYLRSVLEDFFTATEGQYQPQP
Another test concerns the target T2, ITK (Homo sapiens, UniProt Q08881).
T2 sequence (Q08881 1-620): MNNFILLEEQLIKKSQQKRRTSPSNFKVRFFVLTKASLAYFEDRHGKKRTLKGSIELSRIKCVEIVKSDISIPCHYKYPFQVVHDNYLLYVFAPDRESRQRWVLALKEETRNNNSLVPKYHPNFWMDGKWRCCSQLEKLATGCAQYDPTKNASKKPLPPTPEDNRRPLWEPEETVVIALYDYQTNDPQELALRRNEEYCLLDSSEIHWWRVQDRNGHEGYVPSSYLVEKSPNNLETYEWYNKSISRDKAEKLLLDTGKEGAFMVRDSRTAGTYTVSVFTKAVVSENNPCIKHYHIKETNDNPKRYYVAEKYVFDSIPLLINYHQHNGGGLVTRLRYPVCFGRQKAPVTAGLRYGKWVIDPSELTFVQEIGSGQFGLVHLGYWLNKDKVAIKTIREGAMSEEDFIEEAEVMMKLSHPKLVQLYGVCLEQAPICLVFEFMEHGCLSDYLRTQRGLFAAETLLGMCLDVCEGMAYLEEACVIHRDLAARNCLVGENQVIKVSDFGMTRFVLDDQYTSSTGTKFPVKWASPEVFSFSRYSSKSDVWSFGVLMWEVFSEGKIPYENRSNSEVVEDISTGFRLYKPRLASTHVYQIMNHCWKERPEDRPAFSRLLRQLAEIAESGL
In words: Inhibition of a panel of kinases, in vitro HotSpot kinase assay: ITK. As to the method:
as §1

[1] abbreviates: Table 13, A compounds, 1 μM ATP.

Each structure is given as a SMILES string. Read-outs that look alike come from different tables or passages of the source.

Chain of SRC (P12931 whole entry): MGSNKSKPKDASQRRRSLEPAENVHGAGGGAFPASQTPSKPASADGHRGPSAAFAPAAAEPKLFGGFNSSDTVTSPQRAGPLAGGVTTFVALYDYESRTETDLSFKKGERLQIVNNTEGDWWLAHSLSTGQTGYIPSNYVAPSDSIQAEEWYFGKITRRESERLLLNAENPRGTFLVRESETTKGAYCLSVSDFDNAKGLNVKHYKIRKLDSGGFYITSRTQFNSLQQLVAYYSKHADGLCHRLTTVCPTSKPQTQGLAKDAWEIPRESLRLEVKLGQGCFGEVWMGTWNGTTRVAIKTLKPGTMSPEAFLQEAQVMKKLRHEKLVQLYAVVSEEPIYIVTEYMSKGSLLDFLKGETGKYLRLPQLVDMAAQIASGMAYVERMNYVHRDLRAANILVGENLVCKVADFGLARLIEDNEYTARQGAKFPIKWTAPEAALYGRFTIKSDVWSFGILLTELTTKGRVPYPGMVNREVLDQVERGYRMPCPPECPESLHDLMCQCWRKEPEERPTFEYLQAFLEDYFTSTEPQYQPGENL

A word on the IC50: it is the concentration that gives 50% inhibition. For `COCCn1cc(Nc2nc(N3CCC[C@@H](NC(=O)c4ccc(C5CC5)cc4)[C@H]3C)cnc2C(N)=O)cn1` [Example A-186, 5-((2R,3R)-3-(4-cyclopropylbenzamido)-2-methylpiperidin-1-yl)-3-(1-(2-methoxylethyl)-1H-pyrazol-4-ylamino)pyrazine-2-carboxamide], the IC50 was 100 to 1000 nM against SRC (setting [1]); 1000 to 10000 nM on JAK3 (setting [1]); 1000 to 10000 nM at EGFR (setting [1]); 100 to 1000 nM at LCK (setting [1]); 100 to 1000 nM against ITK (setting [1]).

With `C[C@@H]1[C@H](n2ccc3cc(C4CC4)ccc3c2=O)CCCN1c1cnc(C(N)=O)c(Nc2ccc(N3CCN(C)CC3)cc2)n1` [Example A-140, 5-[(2R,3R)-3-(6-cyclopropyl-1-oxo-1,2-dihydro-isoquinolin-2-yl)-2-methylpiperidin-1-yl]-3-{[4-(4-methylpiperazin-1-yl)phenyl]amino}pyrazine-2-carboxamide], the IC50 lay within 10 to 100 nM on SRC (setting [1]); 1000 to 10000 nM at JAK3 (setting [1]); 100 to 1000 nM on EGFR (setting [1]); 10 to 100 nM on LCK (setting [1]); 100 to 1000 nM against ITK (setting [1]).

On to `CN1CCN(C(=O)c2ccc(Nc3nc(N4CCC[C@@H](n5ccc6cc(C7CC7)ccc6c5=O)C4)cnc3C(N)=O)cc2)CC1` [Example A-115, 5-[(3R)-3-(6-cyclo-propyl-1-oxo-1,2-dihydroisoquinolin-2-yl)piperidin-1-yl]-3-{[4-(4-methylpiperazine-1-carbonyl)phenyl]amino}pyr-azine-2-carboxamide], for which the IC50 against SRC (setting [1]), on JAK3 (setting [1]), against EGFR (setting [1]), on LCK (setting [1]) and against ITK (setting [1]) was 100 to 1000 nM each time.

Take `CC(C)N1CCN(c2ccc(Nc3nc(N4CCC[C@@H](NC(=O)c5ccc(C6CC6)cc5F)[C@H]4C)cnc3C(N)=O)cc2)CC1` [Example A-149, 5-[(2R,3R)-3-(4-cyclopropyl-2-fluorobenzamido)-2-methylpiperidin-1-yl]-3-({4-[4-(propan-2-yl)piperazin-1-yl]phenyl}amino)pyrazine-2-carboxamide]: the IC50 against SRC (setting [1]) lay in the range of 10 to 100 nM; on JAK3 (setting [1]), 1000 to 10000 nM; against EGFR (setting [1]), 100 to 1000 nM; at LCK (setting [1]), 10 to 100 nM; at ITK (setting [1]) it was 10 to 100 nM.

Take `C[C@@H]1[C@H](NC(=O)c2ccc(C3CC3)cc2)CCCN1c1cnc(C(N)=O)c(Nc2ccc(OC3CCN(C)C3)cc2)n1` (stereo partly drawn) [Example E-136, 5-((2R,3R)-3-(4-cyclopropylbenzamido)-2-methylpiperidin-1-yl)-3-((4-((1-methylpyrrolidin-3-yl)oxy)phenyl)amino) pyrazine-2-carboxamide]: the half-inhibitory concentration (IC50) is 10 to 100 nM on SRC (E compounds, Table 17); 100 to 1000 nM on JAK3 (E compounds, Table 17); 100 to 1000 nM against EGFR (E compounds, Table 17); 10 to 100 nM on LCK (E compounds, Table 17); 10 to 100 nM at ITK (E compounds, Table 17).

Regarding `C=CC(=O)N[C@@H]1CCCN(c2cnc(C(N)=O)c(Nc3cc(C)ns3)n2)[C@@H]1C` [Example E-97, 5-((2R,3R)-3-acrylamido-2-methylpiperidin-1-yl)-3-(3-methylisothiazol-5-ylamino)pyrazine-2-carboxamide], the IC50 against SRC (E compounds, Table 17) is at most 10 nM; on JAK3 (E compounds, Table 17) it was under 10 nM; against EGFR (E compounds, Table 17) it was 10 to 100 nM; at LCK (E compounds, Table 17), 100 to 1000 nM; on ITK (E compounds, Table 17) it was 10 to 100 nM.

On to `C=CC(=O)N[C@@H]1CCCN(c2cnc(C(N)=O)c(Nc3ccc(C4CCN(C5CC5)CC4)cc3)n2)[C@@H]1C` [Example E-93, 5-((2R,3R)-3-acrylamido-2-methylpiperidin-1-yl)-3-(4-(1-cyclopropylpiperidin-4-yl)phenylamino)pyrazine-2-carboxamide], for which the IC50 on SRC (E compounds, Table 17) was at most 10 nM; on JAK3 (E compounds, Table 17) it was under 10 nM; against EGFR (E compounds, Table 17), 10 to 100 nM; at LCK (E compounds, Table 17), 10 to 100 nM; at ITK (E compounds, Table 17) it was 10 to 100 nM.

Regarding `C[C@@H]1[C@H](NC(=O)c2ccc(C3CC3)cc2F)CCCN1c1cnc(C(N)=O)c(Nc2ccc(N3CCN(C)C[C@@H]3C)cc2)n1` [Example A-176, 5-[(2R,3R)-3-(4-cyclopropyl-2-fluorobenzamido)-2-methylpiperidin-1-yl]-3-({4-[(2S)-2,4-dimethylpiperazin-1-yl]phenyl}amino)pyrazine-2-carboxamide], the IC50 is 100 to 1000 nM on SRC (setting [1]); 100 to 1000 nM on JAK3 (setting [1]); 100 to 1000 nM on EGFR (setting [1]); 10 to 100 nM on LCK (setting [1]); 100 to 1000 nM against ITK (setting [1]).

Turning to `CC1(c2ccc(Nc3nc(N4CCC[C@@H](n5ccc6cc(C7CC7)ccc6c5=O)C4)cnc3C(N)=O)cc2)CCN(C2CCCC2)CC1` [Example A-141, 3-{[4-(1-cyclopentyl-4-methylpiperidin-4-yl)phenyl]amino}-5-[(3R)-3-(6-cyclopropyl-1-oxo-1,2-dihydroisoquinolin-2-yl)piperidin-1-yl]pyrazine-2-carboxamide], the IC50 against SRC (setting [1]) lay within 10 to 100 nM; at JAK3 (setting [1]), 100 to 1000 nM; against EGFR (setting [1]), 100 to 1000 nM; on LCK (setting [1]), 10 to 100 nM; on ITK (setting [1]), 10 to 100 nM.

For the molecule `C[C@@H]1[C@H](NC(=O)c2ccc(C3CC3)cc2F)CCCN1c1cnc(C(N)=O)c(Nc2cc(CN3CCOCC3)ns2)n1` [Example A-128, 5-[(2R,3R)-3-(4-cyclopropyl-2-fluorobenzamido)-2-methylpiperidin-1-yl]-3-{[3-(morpholin-4-ylmethyl)-1,2-thiazol-5-yl]amino}pyrazine-2-carboxamide], the IC50 was 10 to 100 nM against SRC (setting [1]); 100 to 1000 nM at JAK3 (setting [1]); 100 to 1000 nM on EGFR (setting [1]); 10 to 100 nM at LCK (setting [1]); 100 to 1000 nM at ITK (setting [1]).

Take `Cn1cc(Nc2nc(N3CCC[C@@H](n4ccc5cc(C6CC6)ccc5c4=O)C3)cnc2C(N)=O)cn1` [Example A-167, 5-[(3R)-3-(6-cyclopropyl-1-oxo-1,2-dihydroisoquinolin-2-yl)piperidin-1-yl]-3-[(1-methyl-1H-pyrazol-4-yl)amino]pyrazine-2-carboxamide]: the half-maximal inhibitory concentration (IC50) against SRC (setting [1]) is 1000 to 10000 nM; at JAK3 (setting [1]), over 10000 nM; at EGFR (setting [1]), over 10000 nM; on LCK (setting [1]), 1000 to 10000 nM; on ITK (setting [1]), over 10000 nM.

`C=CC(=O)N1CCC[C@@H](Nc2nnc(C(N)=O)c(Nc3ccc(C4CCN(C(=O)CC)CC4)cc3)n2)C1` [Example E-45, (R)-3-(1-acryloylpiperidin-3-ylamino)-5-(4-(1-propionylpiperidin-4-yl)phenylamino)-1,2,4-triazine-6-carboxamide]: the IC50 on SRC (E compounds, Table 17) is 10 to 100 nM; at JAK3 (E compounds, Table 17) it was under 10 nM; on EGFR (E compounds, Table 17), at most 10 nM; at LCK (E compounds, Table 17), 10 to 100 nM; at ITK (E compounds, Table 17), at most 10 nM.

For `C[C@@H]1[C@H](NC(=O)c2ccc(C3CC3)cc2)CCCN1c1cnc(C(N)=O)c(Nc2ccc(N3CCN(C)CC3)cc2)n1` [Example A-170, 5-[(2R,3R)-3-(4-cyclopropylbenzamido)-2-methylpiperidin-1-yl]-3-{[4-(4-methylpiperazin-1-yl)phenyl]amino}pyrazine-2-carboxamide], the IC50 against SRC (setting [1]) was 10 to 100 nM; on JAK3 (setting [1]) it was 1000 to 10000 nM; at EGFR (setting [1]), 100 to 1000 nM; on LCK (setting [1]), 10 to 100 nM; against ITK (setting [1]), 100 to 1000 nM.

The record behind these values is patent publication US20210070748A1, “INHIBITORS OF BRUTONS TYROSINE KINASE” (Pharmacyclics LLC, priority 2015, published 2021).
